“Also recorded” adds a separate entry of the source. Ends that are not written are not given here. Peptide text beside a SMILES is read from it.
Experiments:
[1] = test system: human embryonic kidney (HEK293T) cells; conditions: 24 h
Description: The cells were cultured in high-glucose Dulbecco’s modified Eagle’s medium supplemented with 1% penicillin and streptomycin (antibiotics) and 10% fetal bovine serum and grown at 37 °C in a humidified atmosphere containing 5% CO2.
One day prior to the experiment, 100 μL aliquots of human embryonic kidney (HEK293T) cells, at a concentration of 50,000 cells per mL, were seeded into each well of 96-well plates (5,000 cells per well). Following cell attachment, the HEK293T cells were treated with increasing concentrations of peptides (ranging from 8 to 128 μmol L^−1) and incubated for 24 h. After the exposure period, cytotoxicity was assessed using the 3-(4,5-dimethylthiazol-2-yl)-2,5-diphenyltetrazolium bromide (MTT) assay. Specifically, the MTT reagent was prepared at a concentration of 0.5 mg mL^−1 in phenol red-free medium and used to replace the peptide-containing supernatants (100 μL per well). The plates were then incubated for 4 h at 37 °C in a humidified atmosphere with 5% CO2, facilitating the formation of insoluble formazan crystals. These crystals were subsequently dissolved in 0.04 mol L^−1 hydrochloric acid prepared in anhydrous isopropanol. Absorbance was measured at 570 nm using a spectrophotometer to quantify cell viability. All experiments were conducted in triplicate (three biological replicates).
To evaluate the safety profile of the ATB peptides, we measured their cytotoxicity against human embryonic kidney (HEK293T) cells using a 3-(4,5-dimethylthiazol-2-yl)-2,5-diphenyltetrazolium bromide (MTT) viability assay and determined half-maximal cytotoxic concentrations (CC50). […]
index as the ratio CC50 (HEK293T) / MIC against A. baumannii ATCC 19606.

A. baumannii ATCC 19606 [2] = experiment: NPN uptake outer membrane permeabilization assay; format: cell-based, Acinetobacter baumannii
Description: (§1) We next tested whether ATB peptides act primarily by disrupting the bacterial membrane, we assessed their ability to depolarize the cytoplasmic membrane and permeabilize the outer membrane of A. baumannii ATCC 19606 at their MICs using DiSC3-5 and NPN uptake assays, respectively. […] Fluorescence data were analysed in terms of both maximal signal over time and time-resolved kinetic profiles.
N-phenyl-1-napthylamine (NPN) uptake assay was used to evaluate the ability of the peptides to permeabilize the bacterial outer membrane. Inocula of A. baumannii ATCC 19606 were grown to an OD at 600 nm of 0.4 mL^−1, centrifuged (9,391 ģ at 4 °C for 10 min), washed and resuspended in 5 mmol L^−1 HEPES buffer (pH 7.4) containing 5 mmol L^−1 glucose. The bacterial solution was added to a white 96-well plate ([…] per well) together with […] of NPN at 0.5 mmol L^−1. Consequently, peptides diluted in water were added to each well, and the fluorescence was measured at lex = 350 nm and lem = 420 nm over time for 45 min. The relative fluorescence was calculated using the untreated control (buffer + bacteria + fluorescent dye) and polymyxin B (positive control) as baselines and the following equation was applied to reflect % of difference between the baselines and the sample: Percentagedifference=100*flurescencesample-flurescenceuntreatedcontrol/flurescenceuntreatedcontrol

A. baumannii ATCC 19606 [3] = experiment: DiSC3-5 cytoplasmic membrane depolarization assay; format: cell-based, Acinetobacter baumannii; conditions: peptides at their MICs; HEPES buffer pH 7.2, 20 mmol L^−1 glucose, 0.1 mol L^−1 KCl; 60 min; responses remained below Triton X-100; in words
Description: as §1
The cytoplasmic membrane depolarization assay was performed using the membrane potential-sensitive dye 3,3’-dipropylthiadicarbocyanine iodide (DiSC3-5). A. baumannii ATCC 19606 in the mid-logarithmic phase were washed and resuspended at 0.05 OD mL^−1 (optical value at 600 nm) in HEPES buffer (pH 7.2) containing 20 mmol L^−1 glucose and 0.1 mol L^−1 KCl. […] Membrane depolarization was then followed by reading changes in the fluorescence (lex = 622 nm, lem = 670 nm) over time for 60 min. The relative fluorescence was calculated using the untreated control (buffer + bacteria + fluorescent dye) and polymyxin B (positive control) as baselines and the following equation was applied to reflect % of difference between the baselines and the sample: Percentagedifference=100*flurescencesample-flurescenceuntreatedcontrol/flurescenceuntreatedcontrol

A. baumannii ATCC 19606 [4] = experiment: microbe, parasite or virus in culture; conditions: Fig. 4 heat map; broth microdilution, LB, 10[5] bacterial cells, 0–64 μmol L^−1, 37 °C, one day, OD600; mode of replicates (triplicate)
Description: Figure 4. […] Briefly, 10[5] bacterial cells were incubated with serially diluted peptides (0–64 μmol L^−1) at 37 °C. Bacterial growth was assessed by measuring the optical density at 600 nm in a microplate reader one day post-treatment.

[5] = peptides at their MICs, 5 mmol L^−1 HEPES pH 7.4, 5 mmol L^−1 glucose, 45 min, rank order in words relative to bacterial baseline

Compound	half-maximal cytotoxic concentration (CC50) [1] [µmol/L]	outer membrane permeabilization (NPN fluorescence response) (A. baumannii ATCC 19606 [2]; [5])	further results
MSLKKIAKLLANKKVRKIAWMLISHPKFIKMLKNSIKRR-OH [ATB55]	5 to 6		
MRIKLHLRLAFLRFRKKKSLSRLKPISKIRSK-OH [ATB76]	9 to 12	strong outer-membrane permeabilization; also recorded: largest NPN responses	
MLGRKGLRSVWNGRLNVRKRRQNVRLRKNVRRKNVPKPSVWLI-OH [ATB39]	20 to 100		cytoplasmic membrane depolarization signal (DiSC3-5 fluorescence) (A. baumannii ATCC 19606 [3]): larger depolarization signals
MKKLIRNIIYSKLKFLWRWHRPLIIQRRNL-OH [ATB65]	5 to 6	strong outer-membrane permeabilization; also recorded: largest NPN responses	cytoplasmic membrane depolarization signal (DiSC3-5 fluorescence) (A. baumannii ATCC 19606 [3]): larger depolarization signals
MTKHAIAAKSLLKKWIISRPLNMKKKSSPFQKIRKMFKRFFK-OH [ATB25]	5 to 6		
MNKIILRVKKMLKNIKLKNNGIRKYNVKMEVKLVYFK-OH [ATB63]		largest NPN responses	cytoplasmic membrane depolarization signal (DiSC3-5 fluorescence) (A. baumannii ATCC 19606 [3]): larger depolarization signals
MKILKKNMHNKILPMVSHKKWMMLIKRLKTLGRIKK-OH [ATB56]	20 to 100		
MFKTNLSRVSVKRLLIWVVWWLRLKKLKKKAKKFRKK-OH [ATB60]	9 to 12	strong outer-membrane permeabilization; also recorded: largest NPN responses	cytoplasmic membrane depolarization signal (DiSC3-5 fluorescence) (A. baumannii ATCC 19606 [3]): larger depolarization signals
CC[C@H](C)CCCCC(=O)N[C@@H](CCN)C(=O)N[C@H](C(=O)N[C@@H](CCN)C(=O)N[C@H]1CCNC(=O)[C@H]([C@@H](C)O)NC(=O)[C@H](CCN)NC(=O)[C@H](CCN)NC(=O)[C@H](CC(C)C)NC(=O)[C@@H](Cc2ccccc2)NC(=O)[C@H](CCN)NC1=O)[C@@H](C)O [Polymyxin B, reference compound] (HELM PEPTIDE1{[CC[C@H](C)CCCCC(=O)[*:2]].[Dab].T.[Dab].[Dab].[Dab].[dF].L.[Dab].[Dab].T}$PEPTIDE1,PEPTIDE1,5:R3-11:R2$$$V2.0; N-terminus assumed; bridges inferred)			outer membrane permeabilization (NPN fluorescence response) (A. baumannii ATCC 19606 [2]; pH 7.4): remained at or near baseline
MLKLLSIKLKSKKKILRMTLTKLNKWLKTKKKWLRNLKTM-OH [ATB5]	9 to 12	only minor NPN increases	Minimal Inhibitory Concentration, A. baumannii ATCC 19606 (-) (A. baumannii ATCC 19606 [4]): 1 µmol/L
MRSLKRQLLKHKAVKLSIKKWQFLRKLKLVPKRH-OH [ATB18]	9 to 12		
MIKVSKLVVAKKLNLRKKLKKYLKKPKLGKILLL-OH [ATB12]	20 to 100		
MTKLKMYLKKVRKNANNSTKQWKYGLPVRNAKLWNNFQPKK-OH [ATB51]	20 to 100		
MLKGLKKFKWLKKLKRRLMELNELKKFKKLMELRS-OH [ATB13]	9 to 12		
MIMATKLIKKNKFAKELFSRKYKPRVIKPKKGKGSFKRKKR-OH [ATB99]		largest NPN responses	
MLKLLKKLQMHLLKKLQKEKLLLNLQKKTLKRKRFRHA-OH [ATB61]	20 to 100	largest NPN responses	
MKKLKIKKLKIKKLKIKKLKIKKLKSGLRSQ-OH [ATB2]		only minor NPN increases	
MKLKKLIKFFAFAKGISLLSRRPVRKRTGGLLKKYLAWKYLRRR-OH [ATB6]	20 to 100		
MSLRKKLFVKTMLRVKIKKQSKQRLQKTKRLLQKLKRPWM-OH [ATB3]	20 to 100		
